Counter-ions that a name gives are not always drawn.
Target: T1, sc-urokinase (Homo sapiens, UniProt P00749)
T1 construct: purchased Ribosepharm GmbH, Haan, Germany
Assay: Determination of the urokinase-inhibiting activity (chromogenic substrate, Dixon)
Format: biochemical
Settings: Pefachrome UK or Bz-βAla-Gly-Arg-pNA, 25° C., pH 8.0, mean from at least 3 determinations
Experimental: Determination of the Urokinase-inhibiting Activity
To determine the inhibitory activity, 200 μl of Tris buffer (0.05 mol/l, containing the inhibitor, 0.154 mol/l of NaCl, 5% ethanol, pH 8.0), 25 μl of substrate (Pefachrome UK or Bz-βAla-Gly-Arg-pNA in H2O; Pentapharm Ltd., Basel, Switzerland) and 50 μl of sc-urokinase (Ribosepharm GmbH, Haan, Germany) were incubated at 25° C. After 3 min the reaction was stopped by the addition of 25 μl of acetic acid (50%) and the absorption was determined at 405 nm by means of a microplate reader (MR 50001 Dynatech, Denkendorf, Germany). The Ki values were determined according to Dixon by linear regression using a computer program. The Ki values represent the mean from at least 3 determinations.
The Ki values mentioned in Table 2 can be determined according to the above mentioned method.

SMILES | Ki
CCOC(=O)N1CCN(C(=O)N(Cc2cccc(C(=N)N)c2)NS(=O)(=O)c2c(C(C)C)cc(C(C)C)cc2C(C)C)CC1 [Example 5, 1-Ethoxycarbonyl-4-[1-(3-(amino-imino-methyl)-benzyl)-2-(2,4,6-triisopropyl-benzenesulfonyl)-1-hydrazino-carbonyl]-piperazine hydrochloride] | 0.67 ± 0.18 µM
CCOC(=O)N1CCN(C(=O)N(Cc2cccc(C(N)=NN)c2)NS(=O)(=O)c2c(C(C)C)cc(C(C)C)cc2C(C)C)CC1 [Example 18] | 25.6 ± 9.5 µM

— patent US6861435B2, “Urokinase inhibitors” (Pentapharm AG, priority 2001, dated 2005)
